In brackets after ≈: the same amount, converted by molar mass.

The subject of data set [1] is Escherichia coli. Nature of the data set: Ratio of Kcat to Km in Escherichia coli beta-lactamase SHV-84.
Data set [2] has as its system Escherichia coli. Nature of the data set: Activity at Escherichia coli beta-lactamase SHV-84.
Data set [3] concerns Escherichia coli. Nature of the data set: Antimicrobial activity against Escherichia coli DH5alpha expressing SHV-84 in presence of 2 ug/ml clavulanic acid beta-lactamase inhibitor. Type of data set: functional.
Data set [4] relates to Escherichia coli. Nature of the data set: Antimicrobial activity against Escherichia coli INSRA4590 expressing SHV-84 in presence of 2 ug/ml clavulanic acid beta-lactamase inhibitor. Type of data set: functional.
Data set [5] has as its system Escherichia coli. Nature of the data set: Antimicrobial activity against Escherichia coli INSRA4590 expressing SHV-84. It counts as functional.
For data set [6], the system named is Escherichia coli. Nature of the data set: Antimicrobial activity against Escherichia coli DH5alpha expressing SHV-1 in presence of 2 ug/ml clavulanic acid beta-lactamase inhibitor. It counts as functional.
In data set [7] the test system is Escherichia coli. Nature of the data set: Antimicrobial activity against Escherichia coli DH5alpha expressing SHV-1. It counts as functional.
Data set [8] concerns Escherichia coli. Nature of the data set: Antimicrobial activity against Escherichia coli DH5alpha in presence of 2 ug/ml clavulanic acid beta-lactamase inhibitor. It counts as functional.
Data set [9] concerns Escherichia coli. Nature of the data set: Antimicrobial activity against Escherichia coli DH5alpha expressing SHV-84. It counts as functional.
Data set [10] concerns Escherichia coli. Nature of the data set: Antimicrobial activity against Escherichia coli DH5alpha. Type of data set: functional.
Data set [11] has as its system Escherichia coli. Nature of the data set: Antimicrobial activity against Escherichia coli DH5alpha expressing SHV-1 in presence of 4 ug/ml Tazobactam beta-lactamase inhibitor. Type of data set: functional.
Data set [12] concerns Escherichia coli. Nature of the data set: Antimicrobial activity against Escherichia coli INSRA4590 expressing SHV-84 in presence of 4 ug/ml Tazobactam beta-lactamase inhibitor. It counts as functional.
Data set [13] has as its system Escherichia coli. Nature of the data set: Antimicrobial activity against Escherichia coli DH5alpha in presence of 4 ug/ml Tazobactam beta-lactamase inhibitor. Type of data set: functional.
For data set [14], the system named is Escherichia coli. Nature of the data set: Antimicrobial activity against Escherichia coli DH5alpha expressing SHV-84 in presence of 4 ug/ml Tazobactam beta-lactamase inhibitor. It counts as functional.
Substrate in data set [15]: CCN1CCN(C(=O)N[C@@H](C(=O)N[C@@H]2C(=O)N3[C@@H]2SC(C)(C)[C@@H]3C(=O)O)c2ccccc2)C(=O)C1=O
Nature of the data set: (§1) Activity at Escherichia coli beta-lactamase SHV-1.

Substrate in data set [16]: CC1(C)S[C@@H]2[C@H](NC(=O)[C@H](C(=O)O)c3ccsc3)C(=O)N2[C@H]1C(=O)O
The data set is described as §1.

Substrate in data set [17]: CO/N=C(\C(=O)N[C@@H]1C(=O)N2C(C(=O)O)=C(COC(C)=O)CS[C@H]12)c1csc(N)n1
Described as §1.

Substrate in data set [18]: CC(=O)OCC1=C(C(=O)O)N2C(=O)[C@@H](NC(=O)Cc3cccs3)[C@H]2SC1
The description is as §1.

Substrate in data set [19]: CC(C)(O/N=C(\C(=O)N[C@@H]1C(=O)N2C(C(=O)[O-])=C(C[n+]3ccccc3)CS[C@H]12)c1csc(N)n1)C(=O)O
The data set is described as §1.

Substrate in data set [20]: CC1(C)S[C@@H]2[C@H](NC(=O)Cc3ccccc3)C(=O)N2[C@H]1C(=O)O
The data set is described as §1.

Substrate in data set [21]: CC1(C)S[C@@H]2[C@H](NC(=O)[C@H](N)c3ccc(O)cc3)C(=O)N2[C@H]1C(=O)O
The data set is described as §1.

Substrate in data set [22]: CCN1CCN(C(=O)N[C@@H](C(=O)N[C@@H]2C(=O)N3[C@@H]2SC(C)(C)[C@@H]3C(=O)O)c2ccccc2)C(=O)C1=O
Nature of the data set: (§2) Ratio of Kcat to Km in Escherichia coli beta-lactamase SHV-1.

Substrate in data set [23]: CC1(C)S[C@@H]2[C@H](NC(=O)[C@H](C(=O)O)c3ccsc3)C(=O)N2[C@H]1C(=O)O
Described as §2.

Substrate in data set [24]: CC1(C)S[C@@H]2[C@H](NC(=O)Cc3ccccc3)C(=O)N2[C@H]1C(=O)O
Described as §2.

Substrate in data set [25]: CC1(C)S[C@@H]2[C@H](NC(=O)[C@H](N)c3ccc(O)cc3)C(=O)N2[C@H]1C(=O)O
Described as §2.

Regarding `CC1(C)S[C@@H]2[C@H](NC(=O)Cc3ccccc3)C(=O)N2[C@H]1C(=O)O`, in data set [1], the kcat/Km turned out to be 9.5e+06 M⁻¹ s⁻¹. In [2], the Km is 64 µM and the kcat came out at 611 s⁻¹.

On to `CC1(C)S[C@@H]2[C@H](NC(=O)[C@H](N)c3ccc(O)cc3)C(=O)N2[C@H]1C(=O)O` [AMOXICILLIN], for which the MIC in data set [3] was greater than 64 µg/mL; in data set [4] it was 64 µg/mL; in [5], 512 µg/mL (≈ 1400 µM); in data set [6], 8 µg/mL; in data set [7] it was 2050 µg/mL (≈ 5600 µM); in data set [8], no more than 2 µg/mL. Further, the MIC in data set [9] was 2050 µg/mL (≈ 5600 µM); in data set [10] it was no more than 2 µg/mL. For the same molecule, in data set [1], the kcat/Km stood at 1.04e+07 M⁻¹ s⁻¹. In data set [2], the Michaelis-Menten constant (Km) amounted to 101 µM. The kcat in data set [2] was determined as 1040 s⁻¹.

As for `C[C@H]1[C@H](NC(=O)/C(=N\OC(C)(C)C(=O)O)c2csc(N)n2)C(=O)N1S(=O)(=O)O` [AZTREONAM], the minimum inhibitory concentration (MIC) in [5] and in data set [9] was 0.03 µg/mL (≈ 0.0689 µM) in each case.

For `CO/N=C(\C(=O)N[C@@H]1C(=O)N2C(C(=O)O)=C(COC(C)=O)CS[C@H]12)c1csc(N)n1` [CEFOTAXIME], the MIC was 0.125 µg/mL (≈ 0.274 µM) in data set [5], 0.06 µg/mL (≈ 0.132 µM) in data set [7], 0.06 µg/mL (≈ 0.132 µM) in data set [9] and no more than 0.015 µg/mL in data set [10]. Besides, in data set [2], the kcat was less than 0.1 s⁻¹.

Regarding `CC(C)(O/N=C(\C(=O)N[C@@H]1C(=O)N2C(C(=O)[O-])=C(C[n+]3ccccc3)CS[C@H]12)c1csc(N)n1)C(=O)O` [CEFTAZIDIME], the MIC in data set [5] is 0.25 µg/mL (≈ 0.457 µM); in data set [7], 0.5 µg/mL (≈ 0.915 µM); in data set [9] it was 0.25 µg/mL (≈ 0.457 µM); in data set [10], 0.06 µg/mL (≈ 0.11 µM). Also, the kcat in data set [2] was less than 0.1 s⁻¹.

For `CC(=O)OCC1=C(C(=O)O)N2C(=O)[C@@H](NC(=O)Cc3cccs3)[C@H]2SC1` [CEPHALOTHIN], the MIC turned out to be 8 µg/mL (≈ 20.2 µM) in data set [5], 16 µg/mL (≈ 40.4 µM) in data set [7], 8 µg/mL (≈ 20.2 µM) in data set [9] and 1 µg/mL (≈ 2.52 µM) in data set [10]. Further, in [1], the kcat/Km stood at 20000 M⁻¹ s⁻¹. Also, in data set [2], the Km was found to be 169 µM. In addition, the kcat in data set [2] was determined as 4 s⁻¹.

Turning to `CCN1CCN(C(=O)N[C@@H](C(=O)N[C@@H]2C(=O)N3[C@@H]2SC(C)(C)[C@@H]3C(=O)O)c2ccccc2)C(=O)C1=O` [PIPERACILLIN], the MIC in data set [5] turned out to be 64 µg/mL (≈ 124 µM); in [7], 64 µg/mL (≈ 124 µM); in [11], 2 µg/mL; in data set [12] it was 4 µg/mL; in [13], 1 µg/mL; in data set [9] it was 128 µg/mL (≈ 247 µM). Besides, the MIC in data set [14] was 2 µg/mL; in [10] it was 1 µg/mL (≈ 1.93 µM). For the same molecule, the kcat/Km in [1] worked out at 6e+06 M⁻¹ s⁻¹. The Km in data set [2] was found to be 68 µM. In addition, the kcat in data set [2] turned out to be 406 s⁻¹.

Regarding `CC1(C)S[C@@H]2[C@H](NC(=O)[C@H](C(=O)O)c3ccsc3)C(=O)N2[C@H]1C(=O)O` [TICARCILLIN], the MIC in [5] is greater than 4100 µg/mL; in data set [7], 1020 µg/mL (≈ 2660 µM); in data set [9] it was greater than 4100 µg/mL; in data set [10], no more than 2 µg/mL. In addition, the kcat/Km in data set [1] turned out to be 2.5e+06 M⁻¹ s⁻¹. Also, the Km in data set [2] was 83 µM. For the same molecule, the kcat in data set [2] was 216 s⁻¹.

B1: Beta-lactamase SHV-1 (Escherichia coli), P0AD63 (protein)
chain: MRYIRLCIISLLATLPLAVHASPQPLEQIKLSESQLSGRVGMIEMDLASGRTLTAWRADERFPMMSTFKVVLCGAVLARVDAGDEQLERKIHYRQQDLVDYSPVSEKHLADGMTVGELCAAAITMSDNSAANLLLATVGGPAGLTAFLRQIGDNVTRLDRWETELNEALPGDARDTTTPASMAATLRKLLTSQRLSARSQRQLLQWMVDDRVAGPLIRSVLPAGWFIADKTGAGERGARGIVALLGPNNKAERIVVIYLRDTPASMAERNQQIAGIGAALIEHWQR
For the molecule B1, the Km in [15] was 24 µM; in data set [16] it was 11 µM; in data set [18], 40 µM; in data set [20], 23 µM; in data set [21] it was 31 µM. The kcat is 1490 s⁻¹ in data set [15]; 220 s⁻¹ in data set [16]; less than 0.1 s⁻¹ in [17]; 128 s⁻¹ in [18]; less than 0.1 s⁻¹ in data set [19]; 1940 s⁻¹ in data set [20]. Further, the kcat/Km in data set [22] amounted to 6.21e+07 M⁻¹ s⁻¹; in data set [23], 2e+07 M⁻¹ s⁻¹; in [24], 8.42e+07 M⁻¹ s⁻¹; in data set [25], 3.37e+07 M⁻¹ s⁻¹.

One may read the kcat/Km as the second-order rate constant that governs catalysis at low substrate concentration. By Km is commonly meant the concentration of substrate that gives half-maximal velocity. By kcat is commonly meant the number of substrate molecules converted per active site and unit of time at saturation. What is called MIC is the least concentration at which growth counts as inhibited.

The record behind these values is ChEMBL document CHEMBL1255455, “Biochemical study of a new inhibitor-resistant beta-lactamase, SHV-84, produced by a clinical Escherichia coli strain” (2010).
